# Measurements taken from publication PMC4589331, “Interactions of L-3,5,3'-Triiodothyronine, Allopregnanolone, and Ivermectin with the GABAA Receptor: Evidence for Overlapping Intersubunit Binding Modes” (PLoS ONE, 2015).
# What was measured:
# α1β1γ2 GABAA receptor = molecular target: T1, α1β1γ2 GABAA receptor (Homo sapiens, UniProt P14867+P18505+P18507); assay: Two-electrode voltage-clamp recording of GABAA receptors expressed in Xenopus oocytes; assay type: cell-based
# T1 construct: GeneCopoeia (γ2 cDNA); host or cells: Xenopus laevis oocytes injected with cRNAs, ratio α1:β1:γ2 1:1:2
# Method: The cDNAs encoding human GABAA receptor α1 and β1 subunits were acquired from American Type Culture Collection (ATCC, Manassas, Virginia), while those encoding γ2 subunits were acquired from GeneCopoeia (Rockville, Maryland). Restriction enzymes for the cDNAs came from New England Biolabs (Ipswich, MA).
# HindIII-digested and XholI-digested DNA templates encoding human α1, β1, or γ2 GABAA receptor subunits (4 μg) were transcribed through the mMESSAGE mMACHINE T7 kit from Ambion (Austin, TX). […] The solution was then treated with RNase-free DNase I and precipitated with lithium chloride. The cRNAs were dissolved in double-distilled diethyl-pyrocarbonate (DEPC) treated water to a final concentration of ~ 1–2 μg/ μL. Subunit combinations were aliquoted for the specific receptor type with total concentration remaining ~ 1–2 μg/ μL.
# (§1) X. laevis were anesthetized by placing them in solution of 1 g tricaine methanesulfonate (MS222) per 500 mL in de-chlorinated water. A small incision in the abdomen was made 1 cm away from and parallel to the midline and lobes of ovary were removed. The lobes were gently agitated at room temperature with collagenase (2 mg/mL) in calcium free OR-2 (82.5 mM NaCl, 2.5 mM KCl, 1 mM MgCl2, 5 mM HEPES, pH adjusted to 7.6 with NaOH) until the ovarian epithelium and the follicular cell layer were removed (~2 hrs). Oocytes were checked for proper size and shape, color, and for the presence of distinct animal and vegetal poles. Viable oocytes were placed in ND96 solution (96 mM NaCl, 2mM KCl, 1 mM MgCl2, 1 mM CaCl2, 5 mM HEPES, pH adjusted to 7.6 with NaOH) and the oocytes were injected with 46 nL cRNAs (1–2 μg/μL) expressing the α1β1γ2 construct using a digital microdispenser (Drummond ‘Nanoject II’), with the ratio α1: β1: γ2 1:1:2. […] Injected oocytes were incubated at 18°C in a sterile solution containing Leibovitz L-15 Medium supplemented with 10 mM HEPES, 50 mg/L gentamicin and 50 mg/L tetracycline at pH 7.4.
# After 24 h following injections, oocytes were placed in a recording chamber perfused continuously with ND96. All drugs were perfused into the chamber through a gravity flow system (~5 mL/min). Oocytes were impaled with two 3 M KCl-filled glass microelectrodes (~ 1–2 MΩ). Oocytes were then voltage-clamped at -60 mV with a Model OC-725C Oocyte Clamp (Warner Instruments, Hamden, CT). Currents were recorded using the iWorx LabScribe v1.959 software. The peak amplitudes of the responses were used for data analysis.
# Oocytes were perfused with ND96 between trials until current returned to baseline (approximately 10–15 minutes).
# Graph Pad Prism, version 5.00 (La Jolla, CA), was used for all statistical analysis of two-electrode voltage-clamp data and for fitting the curves by nonlinear regression for determinations of EC50/IC50, min and max response values, and Hill coefficients. To determine the type of competition, a Schild plot analysis was applied to the competitive binding data, utilizing a linear regression fit.
# uninjected oocytes = assay: Two-electrode voltage-clamp recording of uninjected oocytes; assay type: cell-based, Xenopus laevis; conditions: data not shown
# Method: as §1
# After 24 h following injections, oocytes were placed in a recording chamber perfused continuously with ND96. All drugs were perfused into the chamber through a gravity flow system (~5 mL/min). […] Currents were recorded using the iWorx LabScribe v1.959 software. […]
# T1 sequence (P14867 28-456): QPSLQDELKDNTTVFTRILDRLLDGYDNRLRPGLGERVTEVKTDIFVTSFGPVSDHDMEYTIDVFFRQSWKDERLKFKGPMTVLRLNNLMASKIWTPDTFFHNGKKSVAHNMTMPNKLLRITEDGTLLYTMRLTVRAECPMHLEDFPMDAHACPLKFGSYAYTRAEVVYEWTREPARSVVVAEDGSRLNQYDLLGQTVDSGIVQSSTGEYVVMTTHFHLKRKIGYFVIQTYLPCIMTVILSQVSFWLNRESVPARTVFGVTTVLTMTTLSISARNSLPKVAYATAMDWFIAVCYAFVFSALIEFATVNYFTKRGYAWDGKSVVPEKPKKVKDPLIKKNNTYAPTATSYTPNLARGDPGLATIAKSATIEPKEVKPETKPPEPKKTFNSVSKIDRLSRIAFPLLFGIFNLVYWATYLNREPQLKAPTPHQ
# T1 sequence (P18505 26-474): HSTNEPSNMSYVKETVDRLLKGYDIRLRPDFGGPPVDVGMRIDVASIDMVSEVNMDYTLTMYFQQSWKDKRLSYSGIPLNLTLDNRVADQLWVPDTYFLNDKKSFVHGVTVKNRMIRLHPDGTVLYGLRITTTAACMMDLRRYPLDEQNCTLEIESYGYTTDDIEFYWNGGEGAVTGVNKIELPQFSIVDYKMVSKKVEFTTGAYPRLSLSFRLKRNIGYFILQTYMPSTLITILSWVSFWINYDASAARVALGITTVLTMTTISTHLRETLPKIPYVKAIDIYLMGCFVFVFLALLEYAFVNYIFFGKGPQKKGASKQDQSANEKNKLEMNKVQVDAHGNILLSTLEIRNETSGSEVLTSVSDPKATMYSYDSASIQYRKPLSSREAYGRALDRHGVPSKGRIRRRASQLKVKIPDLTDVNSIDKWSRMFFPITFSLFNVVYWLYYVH
# T1 sequence (P18507 40-475): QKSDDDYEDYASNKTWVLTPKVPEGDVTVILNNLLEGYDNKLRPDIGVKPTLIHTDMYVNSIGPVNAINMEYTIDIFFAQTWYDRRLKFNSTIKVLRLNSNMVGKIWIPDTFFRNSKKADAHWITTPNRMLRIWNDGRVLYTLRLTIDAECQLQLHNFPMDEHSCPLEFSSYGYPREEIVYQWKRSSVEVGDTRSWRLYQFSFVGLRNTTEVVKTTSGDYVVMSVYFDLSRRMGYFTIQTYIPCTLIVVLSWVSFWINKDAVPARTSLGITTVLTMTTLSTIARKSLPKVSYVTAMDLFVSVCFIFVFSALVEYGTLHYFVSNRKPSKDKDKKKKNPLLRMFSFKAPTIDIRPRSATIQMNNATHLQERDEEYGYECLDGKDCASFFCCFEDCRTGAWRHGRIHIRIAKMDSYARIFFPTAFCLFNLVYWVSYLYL
SMILES,EC50 (α1β1γ2 GABAA receptor) [µM],Hill coefficient of activation by IVM (α1β1γ2 GABAA receptor; absence of GABA),concentration of apparent maximal effect of IVM (α1β1γ2 GABAA receptor; absence of GABA) [µM],effect of IVM on uninjected oocytes (uninjected oocytes),effect on GABA response (check of γ subunit incorporation) (α1β1γ2 GABAA receptor; oocytes injected with α1:β1:γ2 1:1:2)
"CC(=O)[C@H]1CC[C@H]2[C@@H]3CC[C@H]4C[C@H](O)CC[C@]4(C)[C@H]3CC[C@]12C [ALLOP, 3α-hydroxy-5α-pregnan-20-one]",0.9 ± 0.1,,,,
"CCC(C)C1OC2(CCC1C)CC1CC(CC=C(C)C(OC3CC(OC)C(OC4CC(OC)C(O)C(C)O4)C(C)O3)C(C)C=CC=C3COC4C(O)C(C)=CC(C(=O)O1)C34O)O2 (stereo not drawn) [IVM, ivermectin]",7.1 ± 0.8,1.9 ± 0.4,20 to 50,unaffected,
CN1C(=O)CN=C(c2ccccc2)c2cc(Cl)ccc21 [diazepam],,,,,potentiation
